Experimental data taken from BindingDB's records for doi:10.1111/j.1747-0285.2011.01270.x (National Institutes of Health, 2012).
pIC50: −log10 of the molar value.

Molecular target: T1, Gag-Pol polyprotein [1148-1435] (Human immunodeficiency virus 1, UniProt P04585)
T1 construct: 1148-1435
Experiment: In Vitro Integrase Assay
Experimental: The compound were evaluated in biochemical IN (integrase) assay that measure inhibitory potency (IC50 values)against both the 3'-processing(3'P)and strand transfer(ST)reaction.

SMILES	pIC50
O=C1c2c(CO)[nH]c(=O)c(O)c2C(=O)N1Cc1ccc(F)c(Cl)c1 [Bicyclic hydroxy-1H-pyrrolopyridine-trione, 5g]	5.19
COC(=O)CCc1c2c(c(O)c(=O)n1C(C)C)C(=O)N(Cc1ccc(F)c(Cl)c1)C2=O [Bicyclic hydroxy-1H-pyrrolopyridine-trione, 5e]	5.15
CC(C)Cc1c2c(c(O)c(=O)n1C(C)C)C(=O)N(Cc1ccc(F)c(Cl)c1)C2=O [Bicyclic hydroxy-1H-pyrrolopyridine-trione, 5c]	4.67
Cc1c2c(c(O)c(=O)n1-c1ccccc1)C(=O)N(Cc1ccc(F)c(Cl)c1)C2=O [Bicyclic hydroxy-1H-pyrrolopyridine-trione, 5b]	5.19
CC(=O)OCc1[nH]c(=O)c(O)c2c1C(=O)N(Cc1ccc(F)c(Cl)c1)C2=O [Bicyclic hydroxy-1H-pyrrolopyridine-trione, 5f]	4.91
Cc1c2c(c(O)c(=O)n1C)C(=O)N(Cc1ccc(F)c(Cl)c1)C2=O [Bicyclic hydroxy-1H-pyrrolopyridine-trione, 5a]	5.17
CC(=O)OCc1c2c(c(O)c(=O)n1C(C)C)C(=O)N(Cc1ccc(F)c(Cl)c1)C2=O [Bicyclic hydroxy-1H-pyrrolopyridine-trione, 5d]	4.81
